System: sebaceous cells
Assay: Preclinical sebum production in sebaceous cells
Assay type: cell-based
Settings: preclinical data; lower effect observed at higher concentrations

## S=[Se]=S [selenium disulfide]
  effect on sebum production in sebaceous cells: non-linear dose response
